Among the data in PubChem BioAssay AID1919015 (Molecular Pharmacology Branch, DTP, NCI, 2023) are IC50 and viability, T/C values, retold here.

This test deals with OVCAR-5 complex spheroids with HUVEC/MSC, viability, % test/control. Briefly: Anticancer human tumor OVCAR-5 cell line growth inhibition [AhR].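 For all read-outs here: spheroids exposed to compounds for 7 days.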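 For viability, T/C: 100% = DMSO vehicle control wells.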 To be noted: for viability, T/C: stronger effect = lower value. A digest of the protocol: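 Spheroids combined tumor cells with HUVEC endothelial cells and human MSCs as stroma. AhR antagonists were paired with standard or investigational drugs, each dosed in half-log steps down from near clinical Cmax, or from 10 microM where Cmax was unknown.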

[1] abbreviates: curve of first compound, second compound 0.1 µM.
The mark [2] stands for this setting: curve of first compound, second compound 0.316 µM.
Where [3] appears, read: curve of first compound, second compound 1 µM.
[4] abbreviates: curve of first compound, second compound 3.16 µM.
[5] abbreviates: curve of first compound, second compound 10 µM.
Where [6] appears, read: second compound 0.1 µM, first compound 0.0316 µM.
[7] abbreviates: second compound 0.1 µM, first compound 0.1 µM.
Setting [8] is: second compound 0.1 µM, first compound 0.316 µM.
Where [9] appears, read: second compound 0.1 µM, first compound 1 µM.
[10] abbreviates: second compound 0.1 µM, first compound 3.16 µM.
The mark [11] stands for this setting: second compound 0.1 µM, first compound 10 µM.
Setting [12] is: second compound 0.316 µM, first compound 0.0316 µM.
Setting [13] is: second compound 0.316 µM, first compound 0.1 µM.
[14] abbreviates: second compound 0.316 µM, first compound 0.316 µM.
Where [15] appears, read: second compound 0.316 µM, first compound 1 µM.
[16] abbreviates: second compound 0.316 µM, first compound 3.16 µM.
Setting [17] is: second compound 0.316 µM, first compound 10 µM.
[18] abbreviates: second compound 1 µM, first compound 0.0316 µM.
Where [19] appears, read: second compound 1 µM, first compound 0.1 µM.
Setting [20] is: second compound 1 µM, first compound 0.316 µM.
Setting [21] is: second compound 1 µM, first compound 1 µM.
[22] abbreviates: second compound 1 µM, first compound 3.16 µM.
[23] abbreviates: second compound 1 µM, first compound 10 µM.
Setting [24] is: second compound 3.16 µM, first compound 0.0316 µM.
Setting [25] is: second compound 3.16 µM, first compound 0.1 µM.
Where [26] appears, read: second compound 3.16 µM, first compound 0.316 µM.
The mark [27] stands for this setting: second compound 3.16 µM, first compound 1 µM.
The mark [28] stands for this setting: second compound 3.16 µM, first compound 3.16 µM.
Setting [29] is: second compound 3.16 µM, first compound 10 µM.
[30] abbreviates: second compound 10 µM, first compound 0.0316 µM.
Setting [31] is: second compound 10 µM, first compound 0.1 µM.
Setting [32] is: second compound 10 µM, first compound 0.316 µM.
[33] abbreviates: second compound 10 µM, first compound 1 µM.
The mark [34] stands for this setting: second compound 10 µM, first compound 3.16 µM.
Where [35] appears, read: second compound 10 µM, first compound 10 µM.

Where “and” joins values, the source holds several entries; their conditions need not be identical. Identical values can stand only once. Bounds are passed on as bounds.

Usually IC50 stands for the concentration that gives 50% inhibition. Usually viability, T/C stands for the ratio of treated to control. Regarding `COc1cc(Nc2ncc3c(n2)-c2ccc(Cl)cc2C(c2c(F)cccc2OC)=NC3)ccc1C(=O)O` + CC(CO)NC(=O)c1cc(-c2ccc(Cl)cc2)nn(-c2cnn(C)c2)c1=O, the IC50 worked out at 1820 nM under setting [1]; 2430 nM under setting [2]; 3710 nM under setting [3]; 1760 nM under setting [4]; 8330 nM under setting [5]. For the same compound, the viability, T/C under setting [6] is 88.6%; the viability, T/C under setting [7] was 84.8%; the viability, T/C under setting [8] was 62.4%; the viability, T/C under setting [9] was 55.9%; the viability, T/C under setting [10] was 48.1%; the viability, T/C under setting [11] is 43.3%. Besides, the viability, T/C under setting [12] was 87.3%; the viability, T/C under setting [13] is 84.4%; the viability, T/C under setting [14] is 65.7%; the viability, T/C under setting [15] is 60%; the viability, T/C under setting [16] was 47.9%; the viability, T/C under setting [17] is 38.7%. Further, the viability, T/C was 92.1% under setting [18]; 87% under setting [19]; 69.5% under setting [20]; 60.1% under setting [21]; 54% under setting [22]; 41.8% under setting [23]. For the same compound, the viability, T/C under setting [24] is 79.4%; the viability, T/C under setting [25] is 81.8%; the viability, T/C under setting [26] was 65.4%; the viability, T/C under setting [27] was 55%; the viability, T/C under setting [28] is 46.7%; the viability, T/C under setting [29] is 42.4%. For the same compound, the viability, T/C is 75.5% under setting [30]; 72.8% under setting [31]; 62.9% under setting [32]; 59% under setting [33]; 51.8% under setting [34]; 50.4% under setting [35].

On to `Nc1ccn(C2OC(CO)C(O)C2(F)F)c(=O)n1` (stereo not drawn) + Cc1ccccc1N=Nc1ccc(NC(=O)c2ccnn2C)c(C)c1, for which the IC50 was below 31.6 nM under setting [1]; below 31.6 nM under setting [2]; below 31.6 nM under setting [3]; below 31.6 nM under setting [4]; below 31.6 nM under setting [5]. Moreover, the viability, T/C by setting is: under setting [6], 27.7%; under setting [7], 25.4%; under setting [8], 26.3%; under setting [9], 27.4%; under setting [10], 28.5%; under setting [11], 28.1%. Further, the viability, T/C runs as follows: under setting [12], 27.5%; under setting [13], 25.3%; under setting [14], 26.4%; under setting [15], 26.9%; under setting [16], 29%; under setting [17], 29.1%. Further, the viability, T/C under setting [18] is 29.7%; the viability, T/C under setting [19] is 27.1%; the viability, T/C under setting [20] is 26.7%; the viability, T/C under setting [21] is 27.1%; the viability, T/C under setting [22] was 28%; the viability, T/C under setting [23] was 27.9%. Also, the viability, T/C runs as follows: under setting [24], 28.9%; under setting [25], 27.2%; under setting [26], 27.1%; under setting [27], 28.2%; under setting [28], 29.3%; under setting [29], 29.2%. Besides, the viability, T/C runs as follows: under setting [30], 31.6%; under setting [31], 29.2%; under setting [32], 31.9%; under setting [33], 31.1%; under setting [34], 32.2%; under setting [35], 31%.

In the case of `Cc1ccccc1N=Nc1ccc(NC(=O)c2ccnn2C)c(C)c1`, the viability, T/C is 103% [middle of 20 runs] (compound 0.1 µM); 108% [middle of 20 runs] (compound 0.316 µM); 110% [middle of 20 runs] (compound 1 µM); 113% [middle of 20 runs] (compound 3.16 µM); 105% [middle of 20 runs] (compound 10 µM). The IC50 (compound alone, run of 08/22/2022) was above 10000 nM.

As to `COc1ccc([C@@H](O)c2cc(-c3ncnc4cc(N5CCOCC5)ccc34)c(F)cc2Cl)nn1`, the viability, T/C was 104% and 96.5% and 91.2% (compound 0.0316 µM); 101% and 96.4% and 97.7% (compound 0.1 µM); 95.6% and 86.5% and 85% (compound 0.316 µM); 76.2% and 70.7% and 63.6% (compound 1 µM); 48.4% and 41.8% and 38.3% (compound 3.16 µM); 23% and 23.6% and 18.7% (compound 10 µM). Besides, the IC50 (curve of compound) is 2930 nM and 2290 nM and 1850 nM.

In the case of `O=C(c1cc(Cc2n[nH]c(=O)c3ccccc23)ccc1F)N1CCN(C(=O)C2CC2)CC1` + Cc1ccccc1N=Nc1ccc(NC(=O)c2ccnn2C)c(C)c1, the IC50 under setting [1] was above 10000 nM; the IC50 under setting [2] is above 10000 nM; the IC50 under setting [3] was above 10000 nM; the IC50 under setting [4] is above 10000 nM; the IC50 under setting [5] is above 10000 nM. For the same compound, the viability, T/C runs as follows: under setting [6], 103%; under setting [7], 105%; under setting [8], 102%; under setting [9], 99.8%; under setting [10], 92.5%; under setting [11], 85%. Also, the viability, T/C reads like this: under setting [12], 107%; under setting [13], 109%; under setting [14], 105%; under setting [15], 104%; under setting [16], 98.3%; under setting [17], 90.6%. Further, the viability, T/C under setting [18] was 111%; the viability, T/C under setting [19] was 114%; the viability, T/C under setting [20] was 115%; the viability, T/C under setting [21] was 109%; the viability, T/C under setting [22] was 101%; the viability, T/C under setting [23] was 94.2%. The viability, T/C was 111% under setting [24]; 115% under setting [25]; 114% under setting [26]; 106% under setting [27]; 107% under setting [28]; 99.4% under setting [29]. Also, the viability, T/C was 99.3% under setting [30]; 110% under setting [31]; 103% under setting [32]; 106% under setting [33]; 96.7% under setting [34]; 89.1% under setting [35].
